Bounds are passed on as bounds.

`CCOC(=O)C1=C(C)NC(CSCOC(C)=O)=C(C(=O)OCC)C1c1cccc([N+](=O)[O-])c1` (centres undefined) showed a melting point of 118 to 121 °C.
For `O=C1NC(=Cc2ccc(Cl)cc2Cl)C(=O)C1=NO`, the melting point turned out to be 180 °C.
In turn, `Cc1ncc(C#N)c(Nc2ccc3[nH]ccc3c2C)c1-c1ccc(OCCCl)cc1` gave a melting point of 200 to 201 °C.
Molecule `NCC1CC1CCC(=O)Nc1ccc(NC(=O)CCC2CC2CN)c2c1C(=O)c1ccccc1C2=O` (centres undefined) displayed a melting point of 208 to 210 °C.
`CC(=O)Nc1ccccc1C(=O)Nc1ccc(N2CCN3CCC2CC3)cc1` returned a melting point of 191 °C.
The result for `O=c1[nH]c2ccc(Cl)cc2n1CCCN1CCC(O)(c2ccc(Cl)cc2)CC1` reads 181 °C; that for `CC(C(=O)O)c1ccc2c(c1)Cc1ccccc1-2` (centres undefined), 180 to 182 °C.
In the case of `CC(C)c1cc(C(C)C)c(CC(=O)NS(=O)(=O)Oc2c(C(C)C)cc(N(CCO)CCO)cc2C(C)C)c(C(C)C)c1`, the melting point lay within 143 to 146 °C.
On to `COc1cc(Cc2ccccc2)c(O)c2c1C(C)(C)CCC2(C)C`, for which the melting point turned out to be 80 °C.
In turn, `COc1ccc(Cl)cc1C(=O)NC(C)Cc1ccc(CCC(=O)O)cc1` (centres undefined) gave a melting point of 125 to 126 °C.
Under `O=C1c2cc3ccc4c(c3c(-c3ccncc3)c2C[NH+]1[O-])OCO4` (centres undefined) stands 270 to 274 °C; under `O=C(CCc1ccc(F)cc1)c1ccc(C(F)(F)F)cc1`, 66 to 67 °C; under `CSc1cc2cc(-c3ccccc3)ccc2cc1OS(=O)(=O)C(F)(F)F`, 79.4 to 80.3 °C.
The molecule `CS(=O)(=O)Nc1cc2c(cc1Oc1ccccc1)C(=O)CCO2` returned a melting point of 143 to 144 °C.
In the case of `Cc1nc(C(C)(C)C)ccc1/C=C/C(=O)Nc1ccc2[nH]c(CO)cc2c1`, the melting point came to 213 °C.
`Cn1cc(S(N)(=O)=O)c(=O)c2ccc(Cl)cc21` registered a melting point of 235 to 237 °C.
With `CC=CC=CC(O)c1ccc(-c2nc(C)c3c(n2)sc2c(OCC)nc(N4CCNCC4)nc23)cc1` (centres undefined), the melting point lay in the range of 149 to 150 °C.
Under `CP(C)(=O)CCCOC(=O)c1ccccc1Nc1ccnc2cc(Cl)ccc12` stands 162 °C.
Under `CCCC(=NOCC)C1=C(O)CC(c2cc(C3CCOC3)no2)CC1=O` (centres undefined) stands 85 °C; under `Cc1nnnn1CC(C)n1nnc2cc3c(=O)n(C4CC4)nnc3cc2c1=O` (centres undefined), 208 to 211 °C.
In turn, `CCN(CC)C(=O)CCc1nc(-c2ccccc2)nc2ccc(Br)cc12` yielded a melting point of 146 °C.
The result for `COc1ccc(Nc2ncnc(NCc3ccco3)n2)cc1` reads 184 to 186 °C; that for `O=C1NCc2cc(C(=O)CCCl)ccc2N1`, above 270 °C; that for `O=C(c1ccccc1)c1nc2ncccc2o1`, 151 to 153 °C.
Under `CCN(c1cccc(-c2ccnc3c([N+](=O)[O-])cnn23)c1)S(=O)(=O)c1ccccc1` stands 189 to 191 °C; under `CCc1[nH]nc2c1C(=O)c1c(NC(=O)CN3CCC(CN)CC3)cccc1-2`, 174 to 176 °C; under `CC(=O)N[C@H](COC1CCCCO1)C(=O)NCCO[N+](=O)[O-]` (some centres undefined), 93 to 95 °C.
The molecule `CCOC(=O)CCc1cn(Cc2ccc(OCc3csc(-c4ccccn4)n3)cc2)cc1-c1ccccc1` came in with a melting point of 81 to 82 °C.
For `Cn1c(=O)c(=O)[nH]c2c3ccccc3ccc21`, the melting point is 333 °C.
The molecule `CCCOc1nsc(NC(=O)NC)c1C#N` gave a melting point of 220 °C.
For the molecule `CCOC(=O)c1cnc(Cl)nc1NCc1ccc(OC)c(Cl)c1`, the melting point fell in the range of 114 to 115 °C.
Regarding `COc1ccc(C(=O)Nc2cc(OC)c(Cl)cc2OC)cc1F`, the melting point lay in the range of 197 to 199 °C.
The molecule `CC(C)CCN(CC(O)C(Cc1ccccc1)NC(=O)C(CC(N)=O)NC(=O)c1ccc2ccccc2n1)C(=O)NC(C)(C)C` (centres undefined) came in with a melting point of 93.5 to 95.6 °C.
Regarding `CN1CCN(CC/C=C/c2ccc3ncc(C#N)c(Nc4ccc(Cl)cc4Cl)c3c2)CC1`, the melting point lay within 97 to 98 °C.
The result for `COc1ccc(CNc2ncnc(Cl)c2N)cc1OC` reads 185 to 188 °C; that for `COC(=O)c1sc([N+](=O)[O-])cc1N=NN(C)C`, 128 to 130 °C.
Molecule `Cc1cc(Br)cnc1NCCCNC1=NS(=O)N=C1N` (centres undefined) yielded a melting point of 204 to 205 °C.
Consider `O=C(Nc1cccnc1Cl)N1CCc2ccccc2CC1`, for which the melting point lay within 120 to 122 °C.
`CC(=O)c1c(O)cccc1OCC(C)(O)Oc1ccc(Br)cc1` (centres undefined) registered a melting point of 102 to 103 °C.
The result for `COc1cc2c(C)c(C#N)cnc2cc1F` reads 177 to 179 °C.
Regarding `NC(=O)c1sc2cncc(Oc3ccc(Cl)cc3)c2c1N`, the melting point lay in the range of 202 to 204 °C.
Under `CCCCCCCCCCCCCC(=O)NC1CC(C)(C)N(CC#N)C(C)(C)C1` stands 106 °C; under `O=[N+]([O-])c1cccnc1Nc1ccccc1F`, 97 °C.
`O=C1CNc2ncc(-c3ccc(C(=O)N4CCC[C@H]4CN4CCCC4)cc3)cc2N1Cc1cc(F)ccc1F`: the melting point amounted to 125 °C.
The result for `CC(C)(C)OC(=O)C(C1NC(C(=O)O)C2(CCOCC2)S1)N1C(=O)c2ccccc2C1=O` (centres undefined) reads 199 to 200 °C; that for `Cc1csc(C(=O)O)c1NC(=O)OC(C)(C)C`, 179 to 180 °C.
The result for `O=C(Nc1cc(OCCCO/N=C/c2ccc(C(F)(F)F)cc2)ccc1C(=O)O)c1ccc(C(F)(F)F)cc1` reads 209 to 210 °C; that for `CCOC(=O)c1cn(Cc2ccccc2)nc1OCc1ccc(OCc2nc(-c3ccco3)oc2C)c(Br)c1`, 158 to 159 °C; that for `Cc1ccc(C(=O)CCl)cc1S(N)(=O)=O`, 166 °C.
Consider `CS(=O)(=O)c1ccccc1-c1ccc(C(=O)O)cc1`, for which the melting point lay within 273 to 275 °C.
The molecule `N#Cc1cc(-c2ccccc2)[nH]c1Sc1ccc(N)cc1` registered a melting point of 146 to 147 °C.
For the molecule `CS(=O)(=O)c1ccc(-c2cc(C(=O)c3ccncc3)sc2N2CCOCC2)cc1`, the melting point was 128 °C.
With `Cc1c(C(=O)Nc2ccc(N3CCNCC3)c(C#N)c2)cnn1-c1ccc(Cl)cc1`, the melting point turned out to be 184 °C.
Under `C=CCN(CC=C)C(=O)n1cnc(S(=O)C(C)C)n1` (centres undefined) stands 32 to 34 °C; under `COc1ccc(CS(=O)(=O)c2ccc(S(N)(=O)=O)s2)cc1`, 198 to 203 °C.
The result for `CN(C)CCc1ccc([N+](=O)[O-])c2[nH]ncc12` reads 145 to 146 °C; that for `O=C(O)Cc1ccc(OCCNC(=O)C2Cc3ccccc3N2S(=O)(=O)c2ccc(-c3cc(F)ccc3Cl)cc2)cc1` (centres undefined), 78 to 84 °C.
In turn, `COc1ccc2c(c1)C(=NO)CCCO2` yielded a melting point of 103 to 104 °C.
`O=c1[nH]c2ncc(-c3ccc(-c4nn[nH]n4)cc3)nc2n1CC1CCCCC1`: the melting point was above 400 °C.
The result for `CC(=O)OC1CSC(Oc2cccc(-c3ccncc3)c2)C(OC(C)=O)C1OC(C)=O` (centres undefined) reads 112 °C; that for `Cc1nc(N2CCN(Cc3csc4ccc(Cl)cc34)C2=O)sc1C(=O)NCc1cccnc1`, 185 to 187 °C.
The molecule `Cc1ccc(C2c3c(C)c(Br)c(C)c(C=O)c3OC2(C)C)cc1` (centres undefined) registered a melting point of 128 to 130 °C.
`CCc1c(N(C(C)=O)c2cc(C)cc(C)c2)[nH]c(=O)[nH]c1=O` had a melting point of 238 to 239 °C.
The molecule `COC(=O)N1c2cc(F)ccc2NC(=O)C1(C)C` showed a melting point of 166 to 168 °C.
For `COc1cc2ncc(C#N)c(Nc3cccc(SC)c3)c2cc1OC`, the melting point was above 250 °C.
In turn, `Cc1ccc(-c2cn(C)cc(-c3cccc(C(F)(F)F)c3)c2=O)cc1Br` came in with a melting point of 158 to 161 °C.
`CCCSc1nc(-c2ccc(C#N)cc2)cn1-c1ccc(I)cc1` gave a melting point of 110 to 115 °C.
`CSc1nc(NC2CC2)nc(Cl)c1C#N`: the melting point fell in the range of 139 to 141 °C.
On to `c1cc2c(cc1OCC1CCCCC1)CCCCC2`, for which the melting point was in the range of 62 to 63 °C.
As to `COC(=O)c1cc(C(O)(C(F)(F)F)C(F)(F)F)ccc1NS(C)(=O)=O`, the melting point lay within 147 to 148 °C.
Under `NCCc1c[nH]c2ccc(C(N)=O)cc12` stands 173 to 176 °C.
As for `Cc1cc(Cl)nnc1-c1cccc(C#N)c1`, the melting point is 153 to 155 °C.
For the molecule `O=C1Nc2cc(F)c(F)cc2N2CCN(C(=O)OCc3ccccc3)CC12` (centres undefined), the melting point fell in the range of 226 to 228 °C.
Consider `CCCCCCCCCCCCCCOc1ccc(CC(=O)OC)cc1F`, for which the melting point lay in the range of 38 to 40 °C.
In turn, `C=CCOC1CC2C3CCC4=CC(=O)CCC4(C)C3(F)C(O)CC2(C)C1(O)C(=O)CCl` (centres undefined) showed a melting point of 224 to 225 °C.
`Cc1c(Cl)nc2nc(SCc3ccccc3)nn2c1Cl` displayed a melting point of 121 to 123 °C.
The result for `COc1cc2cc(COC(C)=O)c(COC(C)=O)c(C)c2cc1OC` reads 130 to 131 °C; that for `COCn1c(-c2nc3c(OC)ccc(N4CCOCC4)c3s2)nc2ccc(N3CCOCC3)nc21`, 126 to 128 °C.
Take `Cc1cc(Oc2ccc(C(=O)C=CC(=O)O)cc2)ccc1Cl`: the melting point lay in the range of 135 to 136 °C.
Under `COc1ccc2[nH]c(C(C)=NO)cc2c1` stands 148 to 150 °C; under `CCOC(=O)C1=C(C)NC(C)=C(C(=O)OCC)C1c1cccc(Br)c1`, 125 to 126 °C; under `C=CCn1c(N)cc(=O)n1-c1ccccc1`, 184 to 185 °C.
With `COc1nc2cccc(C(=O)O)c2n1Cc1ccc(-c2ccccc2-c2nnn[nH]2)cc1`, the melting point fell in the range of 208 to 209 °C.
As for `O=C(N1CCOCC1)C(Cl)(c1ccccc1)c1ccccc1`, the melting point came out at 113 °C.
Consider `CNC(=O)c1cc2c(Oc3ccc(/C=C/C(=O)NCC(O)CO)cc3)cncc2s1` (centres undefined), for which the melting point was in the range of 225 to 226 °C.
`CCOC(=O)C=C1C(OC)CC1c1cccc(C2(c3ccc(OC(F)F)cc3)N=C(N)N(C)C2=O)c1` (centres undefined) gave a melting point of 78 to 80 °C.
With `C=C(C)C(=O)Oc1ccc2c(c1)CCc1cc(OC(=O)C(=C)C)ccc1-2`, the melting point was 116 °C.
For the molecule `CCOC(=O)[C@H]1C2C1[C@](N[C@H](C)c1ccccc1)(C(=O)OCC)C[C@@H]2O` (some centres undefined), the melting point lay in the range of 73 to 74 °C.
Consider `COc1ccc(C2=N[C@H](c3ccccc3)[C@@H](OC(=O)Oc3ccc([N+](=O)[O-])cc3)CO2)cc1` (racemic), for which the melting point came out at 164 °C.

For the origin of these results see a melting point compilation (Tetko et al.; mined from patent text by program, amines drawn as free bases though some values may be those of a salt).
